From ChEMBL document CHEMBL4402553, “Recent advances in the discovery and development of glyoxalase I inhibitors” (Bioorg Med Chem, 2020)
One block for each compound: values may come before it.

Columns and labels:
Lactoylglutathione lyase [1] = target: T1, Lactoylglutathione lyase (Homo sapiens, UniProt Q04760); test: Competitive inhibition of human Glyoxalase-1 using GSH and MGO as substrate
Lactoylglutathione lyase [2] = target: Lactoylglutathione lyase (Mus musculus, UniProt Q9CPU0); test: Competitive inhibition of recombinant mouse His-tagged Glyoxalase-1 using GSH and MGO as substrate by spectrophotometric method
Lactoylglutathione lyase [3] = target: T1, Lactoylglutathione lyase; test: Inhibition of human Glyoxalase-1
Lactoylglutathione lyase [4] = target: T1, Lactoylglutathione lyase; test: Competitive inhibition of human Glyoxalase-1 using GSH and MGO as substrate by Michaelis-Menten analysis
Lactoylglutathione lyase [5] = target: T1, Lactoylglutathione lyase; test: Inhibition of Glyoxalase-1 (unknown origin)

T1 sequence (Q04760 whole entry): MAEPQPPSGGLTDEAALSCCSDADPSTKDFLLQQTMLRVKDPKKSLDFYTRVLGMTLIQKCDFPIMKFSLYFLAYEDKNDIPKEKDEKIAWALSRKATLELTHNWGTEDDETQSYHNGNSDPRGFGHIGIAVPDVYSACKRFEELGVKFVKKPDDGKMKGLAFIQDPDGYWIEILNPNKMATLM
Chain of Lactoylglutathione lyase (Mus musculus, UniProt Q9CPU0) (Q9CPU0 whole entry): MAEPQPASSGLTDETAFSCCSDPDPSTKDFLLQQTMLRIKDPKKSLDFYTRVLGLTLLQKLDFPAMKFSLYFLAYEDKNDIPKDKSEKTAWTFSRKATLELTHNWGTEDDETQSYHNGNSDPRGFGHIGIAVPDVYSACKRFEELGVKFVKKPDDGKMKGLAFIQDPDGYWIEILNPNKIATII

Ki (Lactoylglutathione lyase [1]): 7 nM
SMILES: C#Cc1ccc(N(O)C(=O)SC[C@H](NC(=O)CC[C@H](N)C(=O)O)C(=O)NCC(=O)O)cc1

Ki (Lactoylglutathione lyase [2]): 150 nM
SMILES: Cc1cc(O)c(O)c(Oc2cc(C)c(C(=O)O)c(O)c2)c1

Ki (Lactoylglutathione lyase [3]): 10 nM
SMILES: N[C@@H](CCC(=O)N[C@@H](CSC(=O)N(O)c1ccc(I)cc1)C(=O)NCC(=O)O)C(=O)O

Ki (Lactoylglutathione lyase [1]): 19 nM
SMILES: C#Cc1cccc(N(O)C(=O)SC[C@H](NC(=O)CC[C@H](N)C(=O)O)C(=O)NCC(=O)O)c1

Ki (Lactoylglutathione lyase [1]): 1 nM
SMILES: C#Cc1cccc(N(O)C(=O)CC[C@H](NC(=O)CC[C@H](N)C(=O)O)C(=O)NCC(=O)O)c1

Ki (Lactoylglutathione lyase [2]): 230 nM
SMILES: COC(=O)c1c(C)cc(Oc2cc(C)cc(O)c2O)cc1O

Ki (Lactoylglutathione lyase [4]): 0.96 nM
SMILES: O=C(O)CNC(=O)[C@H](CSC(=O)N(O)c1ccc(Cl)cc1)NC(=O)CC[C@H](NC(=O)CCNC(=O)CCNC(=O)CCNC(=O)CCNC(=O)CCNC(=O)CCNC(=O)CCCCCCC(=O)NCCC(=O)NCCC(=O)NCCC(=O)NCCC(=O)NCCC(=O)NCCC(=O)N[C@@H](CCC(=O)N[C@@H](CSC(=O)N(O)c1ccc(Cl)cc1)C(=O)NCC(=O)O)C(=O)O)C(=O)O

IC50 (Lactoylglutathione lyase [5]): 90000 nM
SMILES: NS(=O)(=O)c1ccc2c(c1)S(=O)(=O)NC2=O
